From ChEMBL document CHEMBL1124186, “Synthesis and evaluation of tylosin-related macrolides modified at the aldehyde function: a new series of orally effective antibiotics” (1988)
Values after ≈ are worked out from the molar mass of the structure shown.

How the values were obtained:
Haemophilus influenzae = experiment: In vitro antimicrobial activity against Haemophilus influenzae.; format: functional
Staphylococcus aureus = experiment: In vitro antimicrobial activity against Staphylococcus aureus X1; format: functional
Streptococcus pyogenes [1] = experiment: In vivo effective dose against experimental infections in rodent caused by Streptococcus pyogenes C203 when administered sc; format: functional
[2] = system: Staphylococcus epidermidis; experiment: In vitro antimicrobial activity against Staphylococcus epidermidis EPI1; format: functional
Enterococcus faecium = experiment: In vitro antimicrobial activity against Streptococcus faecium X66; format: functional, streptococcus fae-cium
Streptococcus pyogenes [3] = experiment: In vitro antimicrobial activity against Streptococcus pyogenes C203; format: functional
Streptococcus pyogenes [4] = experiment: In vivo effective dose against experimental infections in rodent caused by Streptococcus pyogenes C203 when administered orally; format: functional; settings: po
Streptococcus pneumoniae = experiment: In vitro antimicrobial activity against Streptococcus pneumoniae; format: functional

SMILES | MIC (Haemophilus influenzae) [µg/mL] | MIC (Staphylococcus aureus) [µg/mL] | ED50 (Streptococcus pyogenes [1]) [mg/kg] | MIC [2] [µg/mL] | MIC (Enterococcus faecium) [µg/mL] | MIC (Streptococcus pyogenes [3]) [µg/mL] | ED50 (Streptococcus pyogenes [4]) [mg/kg] | MIC (Streptococcus pneumoniae) [µg/mL]
CC[C@H]1OC(=O)C[C@@H](O)[C@H](C)[C@@H](O[C@@H]2O[C@H](C)[C@@H](O)[C@H](N(C)C)[C@H]2O)[C@@H](CCOS(=O)c2ccccc2)C[C@@H](C)C(=O)/C=C/C(C)=C/[C@@H]1CO[C@@H]1O[C@H](C)[C@@H](O)[C@@H](OC)[C@H]1OC (some centres undefined) | 8 (≈ 8.91 µM) | 0.25 (≈ 0.278 µM) | 5 | 0.25 (≈ 0.278 µM) | 4 (≈ 4.45 µM) | 0.25 (≈ 0.278 µM) | 45 | 
CC[C@H]1OC(=O)C[C@@H](O)[C@H](C)[C@@H](O[C@@H]2O[C@H](C)[C@@H](O)[C@H](N(C)C)[C@H]2O)[C@@H](CCS(=O)(=O)c2ccc(C)cc2)C[C@@H](C)C(=O)/C=C/C(C)=C/[C@@H]1CO[C@@H]1O[C@H](C)[C@@H](O)[C@@H](OC)[C@H]1OC | 16 (≈ 17.5 µM) | 0.25 (≈ 0.274 µM) | 4.2 | 0.25 (≈ 0.274 µM) | 8 (≈ 8.77 µM) | 1 (≈ 1.1 µM) | > 50 | 1 (≈ 1.1 µM)
CC[C@H]1OC(=O)C[C@@H](O)[C@H](C)[C@@H](O[C@@H]2O[C@H](C)[C@@H](O)[C@H](N(C)C)[C@H]2O)[C@@H](CCI)C[C@@H](C)C(=O)/C=C/C(C)=C/[C@@H]1CO[C@@H]1O[C@H](C)[C@@H](O)[C@@H](OC)[C@H]1OC | 32 (≈ 36.2 µM) | 0.5 (≈ 0.566 µM) | 4.3 | 0.25 (≈ 0.283 µM) | 16 (≈ 18.1 µM) | 0.5 (≈ 0.566 µM) | 19 | 4 (≈ 4.53 µM)
CC[C@H]1OC(=O)C[C@@H](O)[C@H](C)[C@@H](O[C@@H]2O[C@H](C)[C@@H](O)[C@H](N(C)C)[C@H]2O)[C@@H](CCO)C[C@@H](C)C(=O)/C=C/C(C)=C/[C@@H]1CO[C@@H]1O[C@H](C)[C@@H](O)[C@@H](O)[C@H]1OC | 32 (≈ 42.1 µM) | 8 (≈ 10.5 µM) | 8.9 | 4 (≈ 5.26 µM) | 64 (≈ 84.2 µM) | 2 (≈ 2.63 µM) | > 100 | 2 (≈ 2.63 µM)
CCOC(C[C@H]1C[C@@H](C)C(=O)/C=C/C(C)=C/[C@H](CO[C@@H]2O[C@H](C)[C@@H](O)[C@@H](OC)[C@H]2OC)[C@@H](CC)OC(=O)C[C@@H](O)[C@H](C)[C@H]1O[C@@H]1O[C@H](C)[C@@H](O)[C@H](N(C)C)[C@H]1O)OCC | 16 (≈ 18.9 µM) | 0.5 (≈ 0.591 µM) | 3.4 | 1 (≈ 1.18 µM) | 8 (≈ 9.46 µM) | 0.5 (≈ 0.591 µM) | 35 | 4 (≈ 4.73 µM)
CC[C@H]1OC(=O)C[C@@H](O)[C@H](C)[C@@H](O[C@@H]2O[C@H](C)[C@@H](O[C@H]3C[C@@](C)(O)[C@@H](O)[C@H](C)O3)[C@H](N(C)C)[C@H]2O)[C@@H](CCSc2nnnn2C)C[C@@H](C)C(=O)/C=C/C(C)=C/[C@@H]1CO[C@@H]1O[C@H](C)[C@@H](O)[C@@H](OC)[C@H]1OC | > 128 | 0.5 (≈ 0.492 µM) | > 6.3 | 1 (≈ 0.984 µM) | 128 (≈ 126 µM) | 1 (≈ 0.984 µM) |  | 32 (≈ 31.5 µM)
CC[C@H]1OC(=O)C[C@@H](O)[C@H](C)[C@@H](O[C@@H]2O[C@H](C)[C@@H](O[C@H]3C[C@@](C)(O)[C@@H](O)[C@H](C)O3)[C@H](N(C)C)[C@H]2O)[C@@H](CCN2CCCCCCC2)C[C@@H](C)C(=O)/C=C/C(C)=C/[C@@H]1CO[C@@H]1O[C@H](C)[C@@H](O)[C@@H](OC)[C@H]1OC | 128 (≈ 126 µM) | 4 (≈ 3.95 µM) | > 10 | 4 (≈ 3.95 µM) | > 128 | 2 (≈ 1.97 µM) | 44 | 8 (≈ 7.89 µM)
CC[C@H]1OC(=O)C[C@@H](O)[C@H](C)[C@@H](O[C@@H]2O[C@H](C)[C@@H](O)[C@H](N(C)C)[C@H]2O)[C@@H](CC=O)C[C@@H](C)C(=O)/C=C/C(C)=C/[C@@H]1CO[C@@H]1O[C@H](C)[C@@H](O)[C@@H](O)[C@H]1OC | 8 (≈ 10.6 µM) | 2 (≈ 2.64 µM) | 1.8 | 2 (≈ 2.64 µM) | 4 (≈ 5.28 µM) | 0.25 (≈ 0.33 µM) | 81 | 0.25 (≈ 0.33 µM)
CC[C@H]1OC(=O)C[C@@H](O)[C@H](C)[C@@H](O[C@@H]2O[C@H](C)[C@@H](O)[C@H](N(C)C)[C@H]2O)[C@@H](CCOC(C(F)(F)F)C(F)(F)F)C[C@@H](C)C(=O)/C=C/C(C)=C/[C@@H]1CO[C@@H]1O[C@H](C)[C@@H](O)[C@@H](OC)[C@H]1OC | 64 (≈ 69.3 µM) | 0.5 (≈ 0.541 µM) | > 10 | 0.5 (≈ 0.541 µM) | 32 (≈ 34.6 µM) | 0.5 (≈ 0.541 µM) |  | 4 (≈ 4.33 µM)
CC[C@H]1OC(=O)C[C@@H](O)[C@H](C)[C@@H](O[C@@H]2O[C@H](C)[C@@H](O)[C@H](N(C)C)[C@H]2O)[C@@H](CCNCCc2ccccc2)C[C@@H](C)C(=O)/C=C/C(C)=C/[C@@H]1CO[C@@H]1O[C@H](C)[C@@H](O)[C@@H](OC)[C@H]1OC | 8 (≈ 9.12 µM) | 0.5 (≈ 0.57 µM) | > 1.6 | 0.5 (≈ 0.57 µM) | 8 (≈ 9.12 µM) | 0.25 (≈ 0.285 µM) | 55 | 1 (≈ 1.14 µM)
CCOC(=O)NN(CC[C@H]1C[C@@H](C)C(=O)/C=C/C(C)=C/[C@H](CO[C@@H]2O[C@H](C)[C@@H](O)[C@@H](OC)[C@H]2OC)[C@@H](CC)OC(=O)C[C@@H](O)[C@H](C)[C@H]1O[C@@H]1O[C@H](C)[C@@H](O)[C@H](N(C)C)[C@H]1O)C(=O)OCC | 32 (≈ 34.3 µM) | 0.5 (≈ 0.536 µM) | 2.1 | 0.5 (≈ 0.536 µM) | 16 (≈ 17.2 µM) | 1 (≈ 1.07 µM) | > 5 | 1 (≈ 1.07 µM)
CC[C@H]1OC(=O)C[C@@H](O)[C@H](C)[C@@H](O[C@@H]2O[C@H](C)[C@@H](O)[C@H](N(C)C)[C@H]2O)[C@@H](CCOc2ccc([N+](=O)[O-])cc2)C[C@@H](C)C(=O)/C=C/C(C)=C/[C@@H]1CO[C@@H]1O[C@H](C)[C@@H](O)[C@@H](OC)[C@H]1OC | 16 (≈ 17.9 µM) | 0.5 (≈ 0.559 µM) |  | 0.5 (≈ 0.559 µM) | 4 (≈ 4.47 µM) | 1 (≈ 1.12 µM) | 5 | 1 (≈ 1.12 µM)
CC[C@H]1OC(=O)C[C@@H](O)[C@H](C)[C@@H](O[C@@H]2O[C@H](C)[C@@H](O)[C@H](N(C)C)[C@H]2O)[C@@H](CCSc2nnnn2C)C[C@@H](C)C(=O)/C=C/C(C)=C/[C@@H]1CO[C@@H]1O[C@H](C)[C@@H](O)[C@@H](OC)[C@H]1OC |  | 0.5 (≈ 0.573 µM) |  | 0.25 (≈ 0.287 µM) | 16 (≈ 18.3 µM) | 0.25 (≈ 0.287 µM) | 50 | 2 (≈ 2.29 µM)
CC[C@H]1OC(=O)C[C@@H](O)[C@H](C)[C@@H](O[C@@H]2O[C@H](C)[C@@H](O)[C@H](N(C)C)[C@H]2O)[C@@H](CCOc2ccc(CN3CCCCCC3)cc2)C[C@@H](C)C(=O)/C=C/C(C)=C/[C@@H]1CO[C@@H]1O[C@H](C)[C@@H](O)[C@@H](OC)[C@H]1OC | 32 (≈ 33.3 µM) | 0.5 (≈ 0.52 µM) | 1.9 | 0.5 (≈ 0.52 µM) | 8 (≈ 8.32 µM) | 0.5 (≈ 0.52 µM) | 27 | 1 (≈ 1.04 µM)
CC[C@H]1OC(=O)C[C@@H](O)[C@H](C)[C@@H](O[C@@H]2O[C@H](C)[C@@H](O)[C@H](N(C)C)[C@H]2O)[C@@H](CCOc2cc(Cl)cc(Cl)c2)C[C@@H](C)C(=O)/C=C/C(C)=C/[C@@H]1CO[C@@H]1O[C@H](C)[C@@H](O)[C@@H](OC)[C@H]1OC | 32 (≈ 34.8 µM) | 0.25 (≈ 0.272 µM) | > 10 | 0.25 (≈ 0.272 µM) | 4 (≈ 4.35 µM) | 0.12 (≈ 0.131 µM) | 31 | 1 (≈ 1.09 µM)
CC[C@H]1OC(=O)C[C@@H](O)[C@H](C)[C@@H](O[C@@H]2O[C@H](C)[C@@H](O[C@H]3C[C@@](C)(O)[C@@H](O)[C@H](C)O3)[C@H](N(C)C)[C@H]2O)[C@@H](CCN=[N+]=[N-])C[C@@H](C)C(=O)/C=C/C(C)=C/[C@@H]1CO[C@@H]1O[C@H](C)[C@@H](O)[C@@H](OC)[C@H]1OC | > 128 | 2 (≈ 2.12 µM) | 6.3 | 1 (≈ 1.06 µM) | 128 (≈ 136 µM) | 2 (≈ 2.12 µM) |  | 32 (≈ 33.9 µM)
CC[C@H]1OC(=O)C[C@@H](O)[C@H](C)[C@@H](O[C@@H]2O[C@H](C)[C@@H](O)[C@H](N(C)C)[C@H]2O)[C@@H](CCO)C[C@@H](C)C(=O)/C=C/C(C)=C/[C@@H]1CO[C@@H]1O[C@H](C)[C@@H](O)[C@@H](OC)[C@H]1OC | 32 (≈ 41.3 µM) | 2 (≈ 2.58 µM) | 2.1 | 2 (≈ 2.58 µM) | 32 (≈ 41.3 µM) | 4 (≈ 5.17 µM) | > 100 | 4 (≈ 5.17 µM)
